The data set concerns human breast cancer ZR-75-1 cell xenograft tumor. In words: Anti-tumor effect in ER+KAT6high breast cancer cell xenograft tumor model (Test Example 6). The class given is in vivo, Balb/c nude mice. The conditions noted are these: for T/C / TGI / mean tumor volume: day 34; for body weight changes compared to the PF-8144 group: all doses (0.1, 0.3 mg/kg); for efficacy compared to PF-8144: 0.1 mg/kg and 0.3 mg/kg PO QD. The procedure: Test Example 6: Anti-Tumor Effects of Test Compounds in ER^+KAT6^high Breast Cancer Cell-Xenograft Tumor Model
Assay method: ZR-75-1 cells were subcutaneously inoculated into the right back of each mouse to evaluate the efficacy of the compounds in the subcutaneous xenograft tumor model of ZR-75-1 cells.
• 1. Cell culture: ZR-75-1 cells were cultured as a monolayer in vitro under the following culture conditions: an RPMI 1640 medium supplemented with 10% fetal bovine serum and 1% Anti-anti (Antibiotic-Antimycotic), incubated in an incubator at 37° C. with 5% CO2. The cells were digested with trypsin-EDTA twice a week for passaging as per conventional practice. When the cell saturation reached 80%-90% and the quantity met the requirement, the cells were harvested, counted, and inoculated. • 2. Animals: Balb/c nude mice, female, 6-8 weeks old, weighing 18-22 g. A total of 115 mice were required (72 mice were enrolled). They were provided by Vital River or other qualified suppliers. • 3. Tumor inoculation: Two days before tumor inoculation, 17-beta estradiol tablets (0.18 mg) were subcutaneously administered, and 10 million ZR-75-1 tumor cells+matrigel (total […]) were subcutaneously inoculated into the right back of each mouse. When the mean tumor volume reached about 131 mm^3, the mice were grouped for administration. • 4. Experimental administration: The compounds were dissolved in 5% DMSO+5% Tween 80+90% Saline or 10% DMSO+10% Solutol+80% (10% HPP-CD in saline), and administered intragastrically (PO) daily for five weeks. • 5. Experimental indicators: The experimental indicators were to investigate whether the tumor growth was inhibited or delayed or the tumor was cured. Tumor diameters were measured twice weekly using a vernier caliper. The tumor volume was calculated using the following formula: V=0.5a×b^2, where a and b represent the long diameter and short diameter of the tumor, respectively. • 6. The anti-tumor efficacy of the compounds was evaluated by TGI (%) or relative tumor proliferation rate T/C (%). TGI (%) refers to the tumor growth inhibition rate. Calculation of TGI (%):TGI (%)=[(1−(mean tumor volume at the end of administration in a treatment group—mean tumor volume at the start of administration in the treatment group))/(mean tumor volume at the end of treatment in the solvent control group—mean tumor volume at the start of treatment in the solvent control group)]×100%. The calculation formula for the relative tumor proliferation rate T/C (%) was as follows: T/C %=TRTV/CRTV×100% (TRTV:RTV of the treatment group; CRTV:RTV of the negative control group). The relative tumor volume (RTV) was calculated based on the tumor measurement results using the following formula: RTV=Vt/V0, where V0 represents the mean tumor volume measured at the time of grouping for administration (i.e., PG-DO), and Vt represents the mean tumor volume at a certain measurement. TRTV and CRTV were derived from data measured on the same day.
The mean and standard error of mean (SEM) of tumor volume at each time point for each group were included. The differences in tumor volume and tumor weight among the groups were statistically analyzed. For comparisons among three or more groups, one-way ANOVA was used for analysis. […] The analysis was performed using SPSS 17.0, and p<0.05 was considered to indicate a significant difference.
For comparisons between different doses of the same drug or different drugs at the same dose, two-way ANOVA was used for analysis, and the Bonferroni method was applied for testing. The analysis was performed using GraphPad Prism 9.0, and p<0.05 was considered to indicate a significant difference. On day 34 after the start of administration, the data between different doses of the same drug or different drugs at the same dose were analyzed using one-way ANOVA. […] The analysis was performed using SPSS 17.0, and p<0.05 was considered to indicate a significant difference.

Results on four molecules are retold here after patent US20260174778A1, “SULFONAMIDE COMPOUND, AND PREPARATION METHOD THEREFOR AND USE THEREOF” (SHANGHAI HENLIUS BIOTECH, INC., priority 2023, published 2026).

As usually defined, the T/C is the ratio of treated to control. With `COc1ccc2c(c1S(=O)(=O)Nc1noc3cc(Cn4cccn4)c(F)c(OC)c13)OCCCO2` [Compound 114, N-(6-((1H-Pyrazol-1-yl)methyl)-5-fluoro-4-methoxybenzo[d]isoxazol-3-yl)-7-methoxy-3,4-dihydro-2H-benzo[b][1,4]dioxepine-6-sulfonamide], the “body weight changes compared to the PF-8144 group” value (“body weight changes” below) is listed as “no statistically significant difference”. Under “0.1 mg/kg PO QD”, the T/C was 35.8%, the TGI is 72.61% and the mean tumor volume was found to be 403 mm^3. Besides, where the note is “0.3 mg/kg PO QD”, the T/C turned out to be 10.5%, the TGI is given as 101.21% and the mean tumor volume is listed as 119 mm^3.
For `COc1ccc2c(c1S(=O)(=O)Nc1noc3cc(Cn4cccn4)c(F)c(OC)c13)OCCC2=O` [Compound 42, N-(6-((1H-Pyrazol-1-yl)methyl)-5-fluoro-4-methoxybenzo[d]isoxazol-3-yl)-7-methoxy-4-oxochromane-8-sulfonamide], the “efficacy compared to PF-8144” value is given as “significantly superior in efficacy to PF-8144” and the “body weight changes” value is on record as “no statistically significant difference”. For the same molecule, under “0.1 mg/kg PO QD”, the T/C came to 3.9%, the TGI was found to be 108.67% and the mean tumor volume turned out to be 44 mm^3. Also, for the setting “0.3 mg/kg PO QD”, the T/C came out at 2.2%, the TGI is reported as 110.58% and the mean tumor volume came out at 25 mm^3.
For `COc1ccc2c(c1S(=O)(=O)Nc1noc3cc(Cn4cccn4)c(F)c(OC)c13)OCCCN2C` [Compound 115, N-(6-((1H-Pyrazol-1-yl)methyl)-5-fluoro-4-methoxybenzo[d]isoxazol-3-yl)-8-methoxy-5-methyl-2,3,4,5-tetrahydrobenzo[b][1,4]oxazepine-9-sulfonamide], the “efficacy compared to PF-8144” value was “significantly superior in efficacy to PF-8144” and the “body weight changes” value was “no statistically significant difference”. For the setting “0.1 mg/kg PO QD”, the T/C came to 8.6%, the TGI stood at 103.38% and the mean tumor volume was found to be 97 mm^3. Further, for the setting “0.3 mg/kg PO QD”, the T/C was found to be 2.4%, the TGI is on record as 110.47% and the mean tumor volume is on record as 27 mm^3.
With `COc1ccccc1S(=O)(=O)Nc1noc2cc(Cn3cccn3)cc(OC)c12` [PF-8144, reference compound], under “0.1 mg/kg PO QD”, the T/C amounted to 36.2%, the TGI is recorded as 72.2% and the mean tumor volume amounted to 407 mm^3. For the same molecule, under “0.3 mg/kg PO QD”, the T/C is reported as 19.5%, the TGI is given as 91.07% and the mean tumor volume turned out to be 220 mm^3.
